Data published in patent EP3212201B1, “NUCLEOSIDE KINASE INHIBITORS” (BCI Pharma, priority 2014, dated 2016).

What was measured:
Assay in all cases: FRET-based coupled-enzyme protein kinase inhibition assay
Assay type in all cases: biochemical
Conditions in all cases: compound at 10 µM, 1% DMSO
CSNK1G2 (CK1 gamma 2) = CSNK1G2 (CK1 gamma 2) (Homo sapiens, UniProt P78368)
Procedure: (§1) A biochemical assay was then performed in order to measure the protein kinase inhibition. It employed a fluorescence-based coupled-enzyme format and was based on the differential sensitivity of phosphorylated and non-phosphorylated peptides to proteolytic cleavage.
(§2) Peptide substrates were labeled with two fluorophores. The two fluorohores used were coumarin (donor) and fluorecein (acceptor), and each of the peptides was bearing one at one end, and one at the other end, which made up fluorescence resonance energy transfer (FRET) pair peptides.
(§3) In a primary reaction, the FRET-peptides were submitted to a phosphorylation reaction, in which one of adenosine triphosphate (ATP)'s phosphate groups was transferred to the peptide in the presence of kinase. When kinase inhibition takes place, the peptide will not be phosphorylated. In a secondary reaction, both the phosphorylated FRET-peptides and the non-phosphorylated FRET-peptides were reacted with a development reagent. It has been observed that non-phosphorylated FRET-peptides were cleaved, whereas the phosphorylted FRET-peptide remained intact.
(§4) Cleavage disrupts FRET between the donor (i.e., coumarin) and acceptor (i.e., fluorescein) fluorophores on the FRET-peptide, whereas uncleaved, phosphorylated FRET-peptides maintain FRET. A ratiometric method, which calculates the Emission Ratio of donor emission to acceptor emission after excitation of the donor fluorophore at 400 nm, is used to quantitate reaction progress, as shown in the equation below. [formula]
(§5) A significant benefit of this ratiometric method for quantitating reaction progress is the elimination of well-to-well variations in FRET-peptide concentration and signal intensities. As a result, the assay yields very high Z'factor values (>0.7) at a low percent phosphorylation. Both cleaved and uncleaved FRET-peptides contribute to the fluorescence signals and therefore to the Emission Ratio. The extent of phosphorylation of the FRET-peptide can be calculated from the Emission Ratio. The Emission Ratio will remain low if the FRET-peptide is phosphorylated (i.e., no kinase inhibition) and will be high if the FRET-peptide is non-phosphorylated (i.e., kinase inhibition).
(§6) The Test Compounds were screened in 1% DMSO. For 10 point titrations, 3-fold serial dilutions were prepared from the starting concentration.
(§7) All Peptide/Kinase Mixtures were diluted to a 2X working concentration in the appropriate Kinase Buffer (50 mM HEPES pH 7.5, 0.01% BRIJ-35, 10 mM MgCl2, 1 mM […]).
(§8) All ATP Solutions were diluted to a 4X working concentration in Kinase Buffer. ATP Km apparent was previously determined using another assay.
(§9) 2.5 µL - 4X Test Compound or 100 nL 100X plus 2.4 µL kinase buffer were mixed together with 2. 5 µL - 2X Peptide/Kinase Mixture and 3. 2.5 µL - 4X ATP Solution.
(§10) The solution was plate-shaked for 30 seconds, then incubated 60 minutes at room temperature for kinase reaction. 5 µL of Development Reagent Solution were then added, followed by a 30-second plate shake and a 60-minute Development Reaction incubation at room temperature. The results were read on a fluorescence plate reader and the data was analyzed.
(§11) The compounds that show the highest Emission Ratio are the ones that also show the highest protein kinase inhibition properties.

EGFR (ErbB1) = EGFR (ErbB1) (Homo sapiens, UniProt P00533)
Procedure: as §1, §2, §3, §4, §5, §6, §7, §8, §9, §10, §11

IRAK4 = biological target: T1, IRAK4 (Homo sapiens, UniProt Q9NWZ3)
T1 sequence (Q9NWZ3 1-460): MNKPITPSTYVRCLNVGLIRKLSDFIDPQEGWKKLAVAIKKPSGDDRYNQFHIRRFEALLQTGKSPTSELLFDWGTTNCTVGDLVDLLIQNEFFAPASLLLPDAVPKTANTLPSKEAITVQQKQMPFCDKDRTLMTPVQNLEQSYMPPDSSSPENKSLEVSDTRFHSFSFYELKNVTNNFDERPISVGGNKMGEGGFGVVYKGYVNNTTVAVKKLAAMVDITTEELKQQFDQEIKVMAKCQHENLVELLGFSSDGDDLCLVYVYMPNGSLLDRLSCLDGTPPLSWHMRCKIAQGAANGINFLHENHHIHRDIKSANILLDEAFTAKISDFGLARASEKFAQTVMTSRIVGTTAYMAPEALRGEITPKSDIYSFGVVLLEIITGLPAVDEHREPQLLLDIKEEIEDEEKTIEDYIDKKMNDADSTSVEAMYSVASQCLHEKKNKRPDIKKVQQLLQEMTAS
Procedure: as §1, §2, §3, §4, §5, §6, §7, §8, §9, §10, §11

JAK3 = biological target: T2, JAK3 (Homo sapiens, UniProt P52333)
T2 sequence (P52333 1-1124): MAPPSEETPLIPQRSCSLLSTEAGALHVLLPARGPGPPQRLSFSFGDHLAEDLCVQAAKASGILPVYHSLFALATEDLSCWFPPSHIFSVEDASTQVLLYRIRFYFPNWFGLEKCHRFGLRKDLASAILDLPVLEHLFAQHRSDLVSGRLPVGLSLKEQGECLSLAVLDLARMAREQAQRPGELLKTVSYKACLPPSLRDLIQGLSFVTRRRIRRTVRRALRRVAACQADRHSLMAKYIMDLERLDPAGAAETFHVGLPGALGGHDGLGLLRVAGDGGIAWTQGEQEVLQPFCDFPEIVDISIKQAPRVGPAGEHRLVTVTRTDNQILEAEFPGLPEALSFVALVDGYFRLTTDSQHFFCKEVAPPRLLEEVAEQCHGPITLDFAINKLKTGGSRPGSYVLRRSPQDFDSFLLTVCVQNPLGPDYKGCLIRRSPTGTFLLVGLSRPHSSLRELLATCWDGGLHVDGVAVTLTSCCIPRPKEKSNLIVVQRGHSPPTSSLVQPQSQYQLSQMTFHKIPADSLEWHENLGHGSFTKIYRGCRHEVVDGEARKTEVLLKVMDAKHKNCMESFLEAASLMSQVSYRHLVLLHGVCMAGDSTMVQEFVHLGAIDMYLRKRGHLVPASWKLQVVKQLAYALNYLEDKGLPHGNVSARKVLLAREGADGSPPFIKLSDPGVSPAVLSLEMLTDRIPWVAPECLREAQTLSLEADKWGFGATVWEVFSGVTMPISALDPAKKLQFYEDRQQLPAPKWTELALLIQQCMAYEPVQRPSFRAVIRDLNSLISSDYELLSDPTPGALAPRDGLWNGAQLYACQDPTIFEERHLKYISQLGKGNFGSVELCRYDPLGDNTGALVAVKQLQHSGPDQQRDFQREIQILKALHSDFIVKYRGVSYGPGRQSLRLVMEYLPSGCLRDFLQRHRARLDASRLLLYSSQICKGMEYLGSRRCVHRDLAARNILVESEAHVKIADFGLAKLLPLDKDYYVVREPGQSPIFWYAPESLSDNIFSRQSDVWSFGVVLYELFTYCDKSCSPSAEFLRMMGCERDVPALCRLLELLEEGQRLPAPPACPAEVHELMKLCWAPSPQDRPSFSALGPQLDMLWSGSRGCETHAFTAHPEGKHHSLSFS
Procedure: as §1, §2, §3, §4, §5, §6, §7, §8, §9, §10, §11

PDGFRB (PDGFR beta) = PDGFRB (PDGFR beta) (Homo sapiens, UniProt P09619)
Procedure: as §1, §2, §3, §4, §5, §6, §7, §8, §9, §10, §11

PIM1 = PIM1 (Homo sapiens, UniProt P11309)
Procedure: as §1, §2, §3, §4, §5, §6, §7, §8, §9, §10, §11

Sequence of EGFR (ErbB1) (P00533 25-1210, species assumed): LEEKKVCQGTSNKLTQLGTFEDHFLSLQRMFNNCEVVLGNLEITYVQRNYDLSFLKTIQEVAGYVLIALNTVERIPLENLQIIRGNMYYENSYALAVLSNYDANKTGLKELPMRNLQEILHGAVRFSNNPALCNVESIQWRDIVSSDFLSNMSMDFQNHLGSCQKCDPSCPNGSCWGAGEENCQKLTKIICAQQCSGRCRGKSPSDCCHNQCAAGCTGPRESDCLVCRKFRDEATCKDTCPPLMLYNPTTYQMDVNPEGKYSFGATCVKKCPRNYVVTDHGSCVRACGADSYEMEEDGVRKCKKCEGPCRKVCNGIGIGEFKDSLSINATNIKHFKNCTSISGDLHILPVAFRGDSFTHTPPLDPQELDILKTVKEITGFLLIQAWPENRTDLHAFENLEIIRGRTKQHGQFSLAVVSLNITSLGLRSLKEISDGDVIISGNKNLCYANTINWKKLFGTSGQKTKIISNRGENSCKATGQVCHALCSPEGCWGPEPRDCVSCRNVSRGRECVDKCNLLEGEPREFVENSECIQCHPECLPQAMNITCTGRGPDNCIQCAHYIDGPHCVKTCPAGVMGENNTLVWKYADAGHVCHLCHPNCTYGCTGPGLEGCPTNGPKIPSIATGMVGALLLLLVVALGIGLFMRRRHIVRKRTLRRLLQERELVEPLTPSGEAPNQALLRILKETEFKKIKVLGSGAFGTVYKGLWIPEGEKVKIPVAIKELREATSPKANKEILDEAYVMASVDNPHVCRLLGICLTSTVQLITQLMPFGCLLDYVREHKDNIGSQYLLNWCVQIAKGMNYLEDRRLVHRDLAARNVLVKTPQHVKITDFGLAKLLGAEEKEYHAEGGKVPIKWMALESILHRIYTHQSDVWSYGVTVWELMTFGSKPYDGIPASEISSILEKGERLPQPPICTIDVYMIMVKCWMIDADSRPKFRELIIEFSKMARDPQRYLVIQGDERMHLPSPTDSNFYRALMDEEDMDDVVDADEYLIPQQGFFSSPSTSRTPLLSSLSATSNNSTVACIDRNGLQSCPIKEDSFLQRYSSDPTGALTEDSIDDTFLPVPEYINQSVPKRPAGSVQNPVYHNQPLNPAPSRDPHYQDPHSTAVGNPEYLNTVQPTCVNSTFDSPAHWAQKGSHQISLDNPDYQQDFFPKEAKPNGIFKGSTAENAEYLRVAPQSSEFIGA
Sequence of PIM1 (P11309 whole entry, species assumed): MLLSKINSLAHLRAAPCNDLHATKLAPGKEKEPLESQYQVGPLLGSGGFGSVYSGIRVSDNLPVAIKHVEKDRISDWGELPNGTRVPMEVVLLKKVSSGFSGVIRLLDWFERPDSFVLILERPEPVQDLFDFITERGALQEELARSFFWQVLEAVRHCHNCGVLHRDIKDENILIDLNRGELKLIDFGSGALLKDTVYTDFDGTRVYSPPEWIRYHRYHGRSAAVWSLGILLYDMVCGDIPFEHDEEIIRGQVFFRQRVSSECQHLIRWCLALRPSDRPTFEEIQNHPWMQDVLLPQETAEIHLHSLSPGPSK
Sequence of CSNK1G2 (CK1 gamma 2) (P78368 whole entry, species assumed): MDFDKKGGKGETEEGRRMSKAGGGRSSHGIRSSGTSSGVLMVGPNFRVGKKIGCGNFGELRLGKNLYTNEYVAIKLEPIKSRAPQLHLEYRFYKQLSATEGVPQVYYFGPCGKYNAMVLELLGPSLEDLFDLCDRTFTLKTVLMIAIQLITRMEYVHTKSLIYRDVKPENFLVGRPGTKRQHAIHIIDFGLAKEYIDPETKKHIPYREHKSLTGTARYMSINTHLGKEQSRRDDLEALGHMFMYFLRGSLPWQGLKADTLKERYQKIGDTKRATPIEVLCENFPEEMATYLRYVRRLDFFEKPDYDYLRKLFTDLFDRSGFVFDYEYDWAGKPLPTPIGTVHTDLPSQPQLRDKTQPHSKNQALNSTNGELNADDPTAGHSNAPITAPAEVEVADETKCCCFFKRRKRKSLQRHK
Sequence of PDGFRB (PDGFR beta) (P09619 33-1106, species assumed): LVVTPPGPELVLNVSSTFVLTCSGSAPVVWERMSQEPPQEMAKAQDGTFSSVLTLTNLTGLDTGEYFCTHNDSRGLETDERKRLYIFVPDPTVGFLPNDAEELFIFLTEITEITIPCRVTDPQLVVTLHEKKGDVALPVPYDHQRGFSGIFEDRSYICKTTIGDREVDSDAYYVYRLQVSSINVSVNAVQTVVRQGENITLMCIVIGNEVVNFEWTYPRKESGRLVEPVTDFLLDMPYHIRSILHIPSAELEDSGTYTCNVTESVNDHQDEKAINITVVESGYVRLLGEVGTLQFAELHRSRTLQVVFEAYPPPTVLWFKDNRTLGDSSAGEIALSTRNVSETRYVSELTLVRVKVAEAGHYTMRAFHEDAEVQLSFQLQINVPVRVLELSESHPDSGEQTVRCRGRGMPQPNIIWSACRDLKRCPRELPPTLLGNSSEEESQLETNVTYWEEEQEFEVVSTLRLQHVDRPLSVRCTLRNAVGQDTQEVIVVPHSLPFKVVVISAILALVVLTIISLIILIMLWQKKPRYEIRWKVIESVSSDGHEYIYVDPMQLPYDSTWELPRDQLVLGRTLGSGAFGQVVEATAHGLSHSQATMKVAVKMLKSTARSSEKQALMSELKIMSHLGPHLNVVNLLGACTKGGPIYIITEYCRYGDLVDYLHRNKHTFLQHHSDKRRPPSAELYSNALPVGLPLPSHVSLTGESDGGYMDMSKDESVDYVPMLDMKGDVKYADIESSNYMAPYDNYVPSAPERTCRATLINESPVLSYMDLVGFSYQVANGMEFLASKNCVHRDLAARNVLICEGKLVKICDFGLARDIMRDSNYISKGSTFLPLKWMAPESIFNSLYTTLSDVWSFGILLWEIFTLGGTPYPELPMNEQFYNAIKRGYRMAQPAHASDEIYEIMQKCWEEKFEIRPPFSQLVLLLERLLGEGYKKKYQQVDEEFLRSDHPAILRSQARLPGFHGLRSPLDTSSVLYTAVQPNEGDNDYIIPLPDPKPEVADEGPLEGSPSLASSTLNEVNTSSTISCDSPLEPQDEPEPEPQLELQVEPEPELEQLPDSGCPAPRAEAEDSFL

SMILES | inhibition at 10 µM (CSNK1G2 (CK1 gamma 2)) [%] | inhibition at 10 µM (EGFR (ErbB1)) [%] | inhibition at 10 µM (IRAK4) [%] | inhibition at 10 µM (JAK3) [%] | inhibition at 10 µM (PDGFRB (PDGFR beta)) [%] | inhibition at 10 µM (PIM1) [%]
CC(C)N1CCC(NC(=O)OC[C@H]2O[C@@H](n3cnc4c(N)ncnc43)[C@H](O)[C@@H]2O)CC1 [Compound C19] | 6 | 17 | -3 | -2 | 6 | -7
Nc1ncnc2c1ncn2[C@@H]1O[C@H](COC(=O)N2CCN(Cc3ccccc3)CC2CO)[C@@H](O)[C@H]1O (stereo partly drawn) [Compound C13] | 11 | 8 | 13 | 1 | 6 | 1
C[C@@H](NC(=O)OC[C@H]1O[C@@H](n2cnc3c(N)ncnc32)[C@H](O)[C@@H]1O)c1ccc(Cl)cc1 [Compound C4] | 7 | 22 | 3 | 6 | 5 | -8
Nc1ncnc2c1ncn2[C@@H]1O[C@H](COC(=O)NC[C@H](O)CO)[C@@H](O)[C@H]1O [Compound C8] | 13 | 14 | -8 | -2 | 5 | 11
Nc1ncnc2c1ncn2[C@@H]1O[C@H](COC(=O)N[C@@H]2CCN(Cc3ccccc3)C2)[C@@H](O)[C@H]1O [Compound C10] | 7 | 27 | 6 | -2 | 7 | 1
Nc1ncnc2c1ncn2[C@@H]1O[C@H](COC(=O)N2CCN(C(=O)N3CCOCC3)CC2)[C@@H](O)[C@H]1O [Compound C89] | 0 | 28 | -5 | 2 | 9 | -4
Nc1ncnc2c1ncn2[C@@H]1O[C@H](COC(=O)N2CCS(=O)(=O)CC2)[C@@H](O)[C@H]1O [Compound C100] | -1 | 8 | 0 | -2 | 4 | -1
Nc1ncnc2c1ncn2[C@@H]1O[C@H](COC(=O)N2CCN(CCc3ccccc3)CC2)[C@@H](O)[C@H]1O [Compound C26] | 0 | 13 | 2 | -7 | 1 | -5
CN(C)CCNC(=O)OC[C@H]1O[C@@H](n2cnc3c(N)ncnc32)[C@H](O)[C@@H]1O [Compound C85] | 0 | 20 | -1 | -12 | 8 | 0
CS(=O)(=O)N1CC2(CCN(C(=O)OC[C@H]3O[C@@H](n4cnc5c(N)ncnc54)[C@H](O)[C@@H]3O)CC2)c2ccccc21 [Compound C98] | 15 | 5 | -17 | -1 | 10 | 6
N#CCCN1CCN(C(=O)OC[C@H]2O[C@@H](n3cnc4c(N)ncnc43)[C@H](O)[C@@H]2O)CC1 [Compound C70] | 0 | -1 | 0 | -8 | 4 | 5
Nc1ncnc2c1ncn2[C@@H]1O[C@H](COC(=O)NCCCc2nc3ccccc3[nH]2)[C@@H](O)[C@H]1O [Compound C1] | -2 | 34 | -2 | -2 | 1 | -2
CN1CCN(CCNC(=O)OC[C@H]2O[C@@H](n3cnc4c(N)ncnc43)[C@H](O)[C@@H]2O)CC1 [Compound C46] | -4 | 14 | 7 | 2 | 1 | 8
Nc1ncnc2c1ncn2[C@@H]1O[C@H](COC(=O)N2CCC(Cc3ccc(F)cc3)C2)[C@@H](O)[C@H]1O (stereo partly drawn) [Compound C66] | 10 | 31 | -2 | 0 | 4 | 7
Nc1ncnc2c1ncn2[C@@H]1O[C@H](COC(=O)N2CCC[C@H]2CO)[C@@H](O)[C@H]1O [Compound C9] | -5 | -2 | -2 | -8 | -1 | 3
Nc1ncnc2c1ncn2[C@@H]1O[C@H](COC(=O)NCCN2CCCC2=O)[C@@H](O)[C@H]1O [Compound C22] | 2 | 11 | 1 | -8 | 4 | -6
